The values below come from patent US6828450B2, “Triptycene analogs” (Kansas State University Research Foundation, priority 2000, dated 2004).

Molecules are shown by their SMILES. Where two headings read alike, the source gives them in different places.

The subject of one series is HL-60-S cells. The experiment in a line: Nucleoside transport in HL-60-S cells. It is filed as cell-based, human. Particulars: for IC50: 15-min preincubation, 30 s. The text has this:
FIG. 15. Comparison of the concentration-dependent inhibitions of the cellular transport of purine (A) and pyrimidine (B) nucleosides by DAU (open symbols) and TT2 (closed symbols) in HL-60-S (circles), HL-60-RV (squares) and HL-60-R8 (triangles) cells in vitro. Results are expressed as % of ^3H-adenosine (26,032±2,239 cpm, 100±9%, striped area in A) and ^3H-thymidine (17,934±1,398 cpm, 100±8%, striped area in B) transported into vehicle-treated control cells over 30 s.
(§1) The MDR HL-60-RV and HL-60-R8 cells were developed in Melvin S. Center's laboratory (Kansas State University) and similarly maintained in RPMI 1640 medium in the absence of drugs (Marsh W, et al, Cancer Res 46: 4053-4057, 1986; McGrath T et al, and Center M S: Biochem Biophys Res Commun 145: 1171-1176, 1987; Marsh W and Center M S: Cancer Res 47: 5080-5086, 1987; McGrath T, et al, Biochem Pharmacol 38: 3611-3619, 1989; Marquardt D, et al, Cancer Res 50: 1426-1430, 1990; Marquardt D and Center M S: J Natl Cancer Inst 83: 1089-1109, 1991; Krishnamachary N and Center M S; Cancer Res 53: 3658-3661, 1993). Every 4 weeks, these HL-60-RV and HL-60-R8 sublines were exposed to 41 nM DAU for 48 h to stabilize their MDR phenotype. This concentration of DAU, which is not cytotoxic to MDR HL-60 sublines, was removed from the culture medium at least 48 h before experimentation. […] RFs were determined by dividing the IC50 of the MDR cells by that of the sensitive WT parent cell line.
L1210 cells (about 1.5×10^6 cells/0.5 ml) were preincubated for 15 min at 37° C. in the presence or absence of TTs and then exposed to 1 μCi of ^3H-thymidine for only 30 sec to assess the cellular uptake of nucleoside over such very short period of time. […] Cell lysates were mixed with 9 ml of Bio-Safe II (Researeh Products International) and counted to estimate the cellular uptake of ^3H-thymidine. Drug inhibition was expressed as % of ^3H-thymidine or ^3H-adenosine transported into vehicle-treated control cells over similar 30-sec period.

Series [1] relates to HL-60-RV cells. Kind of series: cells. Particulars: for IC50: read-out: IC50, decrease of HL-60-RV cell viability. Format: cell-based, human.
Source text: as §1

The test system of series [2] is HL-60-R8 cells. Kind of series: HL-60-R8 (MDR) cell proliferation assay. Particulars: read-out: IC50, inhibition of HL-60-R8 cell proliferation. It is filed as cell-based, human.
Source text: as §1

Series [3] deals with HL-60-R8 cells. The experiment in a line: HL-60-R8 (MDR) cell viability assay (MTS:PMS). Particulars: read-out: IC50, decrease of HL-60-R8 cell viability. It is filed as cell-based, human.
Source text: as §1

Series [4] deals with HL-60-RV cells. Kind of series: DNA synthesis in HL-60-RV cells. It is filed as cell-based, human. Particulars: for IC50: read-out: IC50, inhibition of DNA synthesis in HL-60-RV cells.
The test system of series [5] is Plasmodium falciparum 3D7. The experiment in a line: Antimalarial activity, inhibition of Plasmodium falciparum 3D7. Particulars: malaria strain 3D7. Format: cell-based.
Where [6] appears, read: HL-60-RV and HL-60-R8 vs HL-60-S.
[7] abbreviates: HL-60-RV and HL-60-R8 vs HL-60-S, day 2.
[8] abbreviates: HL-60-RV and HL-60-R8 vs HL-60-S, day 4.

For `COc1cccc2c1C(=O)c1c(O)c3c(c(O)c1C2=O)C[C@@](O)(C(C)=O)C[C@@H]3O[C@H]1C[C@H](N)[C@H](O)[C@H](C)O1` [DAU, daunomycin, reference compound], in the series on HL-60-S cells, the “effect on nucleoside transport in WT HL-60-S cells” value is listed as “fails to significantly inhibit”. In addition, the “times less potent as cytotoxic agent in MDR than in WT HL-60 cells” value in the series on HL-60-RV cells [1] (setting [6]) is on record as “about 28 times”. The entries for the “RFs, cell viability (IC50 of MDR cells / IC50 of WT HL-60-S)” value in the series on HL-60-RV cells [1] (setting [7]) and in the series with HL-60-RV cells [1] (setting [8]) were 23.8-31.3 and 25.3-30.0, respectively. Further, the IC50 in the series on HL-60-RV cells [1] (Homo sapiens, 96 h) stood at 450 nM; in the series with HL-60-R8 cells [2] (Homo sapiens, 48 h) it was 320 nM; in the series with HL-60-R8 cells [2] (Homo sapiens, 96 h), 225 nM; in the series on HL-60-R8 cells [3] (Homo sapiens, 48 h) it was 2500 nM; in the series with HL-60-R8 cells [3] (Homo sapiens, 96 h) it was 380 nM; in the series with HL-60-RV cells [4] (Homo sapiens) it was 2500 nM. The “RFs, DNA synthesis (IC50 of MDR cells / IC50 of WT HL-60-S)” value in the series on HL-60-RV cells [4] (setting [6]) was 8.1-11.9. Moreover, the “times MDR sublines are less sensitive, DNA synthesis” value in the series on HL-60-RV cells [4] (setting [6]) is recorded as 10 times.

As for `COC1=CC(=O)C2=C(C1=O)C1C3=C(C(=O)C=CC3=O)C2c2ccccc21` (centres unmarked) [TT2, 2-Methoxy-9,10-dihydro-9,10-[1′,2′]benzenoanthracene-1,4,5,8-tetraone], the IC50 in the series with HL-60-S cells (purine nucleoside, read-out: IC50, cellular transport of 3H-adenosine in HL-60-S cells) was found to be 3300 nM; in the series with HL-60-S cells (pyrimidine nucleoside, read-out: IC50, cellular transport of 3H-thymidine in HL-60-S cells), 2000 nM; with HL-60-RV cells [1] (day 2) it was 1100 nM; in the series with HL-60-RV cells [1] (day 4) it was 340 nM; in the series on HL-60-R8 cells [2] (day 2) it was 350 nM; in the series with HL-60-R8 cells [2] (day 4) it was 290 nM. Moreover, the IC50 with HL-60-R8 cells [3] (day 2) is 1600 nM; with HL-60-R8 cells [3] (day 4) it was 350 nM; in series [5], 8000 nM; in the series on HL-60-RV cells [4] it was 2100 nM. Moreover, the “RFs, cell viability (IC50 of MDR cells / IC50 of WT HL-60-S)” value in the series with HL-60-RV cells [1] (setting [7]) was 0.9-1.2; in the series with HL-60-RV cells [1] (setting [8]) it was 1.5. Also, the “RFs, DNA synthesis (IC50 of MDR cells / IC50 of WT HL-60-S)” value in the series with HL-60-RV cells [4] (setting [6]) is on record as 1.2.

`COC1=C(Br)C(=O)C2=C(C1=O)C1C3=C(C(=O)C=C(N(C)C)C3=O)C2c2ccccc21` (centres unmarked) [TT16, 2-Bromo-3-methoxy-6-(dimethylamino)-9,10-dihydro-9,10-[1′,2′]benzenoanthracene-1,4,5,8-tetraone]: in series [5], the IC50 turned out to be 5600 nM.
